PMC10387993, “New pyrimidine-N-β-D-glucosides: synthesis, biological evaluation, and molecular docking investigations” (Turkish Journal of Chemistry, 2023)
≈ marks a conversion by molar mass, not a printed value. Where two headings read alike, the source gives them in different places. Values belong to the compound of their own block, whether it stands above or below them.

Tests used:
Type in all cases: cell-based
[1] = LDH cytotoxic activity assay, C6; conditions: rat, C6 glioma cells; for cytotoxicity at 24 h, 25 μg/mL: C6, 25 μg/mL; for cytotoxicity at 24 h, 50 μg/mL: C6, 50 μg/mL; for cytotoxicity at 24 h, 75 μg/mL: C6, 75 μg/mL; for cytotoxicity at 24 h, 100 μg/mL: C6, 100 μg/mL
Outline: (§1)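 Cells grown in DMEM or RPMI 1640 with 10% FBS were seeded at about 5 × 10^3 per well in triplicate. They were exposed to 25, 50, 75 and 100 μg/mL compound for 24 h at 37 °C, 5% CO2, and LDH release was measured by absorbance at 492–630 nm.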

C6 (Rat brain glioma) = experiment: cells; conditions: Rattus norvegicus; for LC50 (concentration giving 50% net cell loss relative to time zero): read-out: LC50; for GI50 / IC50 / IC (total growth inhibition): C6, MTT; for IC50: read-out: IC50; for IC (total growth inhibition): read-out: TGI
Outline: (§2)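 Seed ~1 × 10^4 cells/well; final 200 μL. Add MTT in phenol-red-free RPMI 1640, 4 h. Solubilise formazan in DMSO + Sorenson's buffer, 30 min RT. Read 560/690 nm. ≥3 repeats.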

A549 = experiment: cells; conditions: Homo sapiens; for LC50 (concentration causing 50% net cell loss): A549, read-out: LC50; for GI50 / IC50 / IC (total growth inhibition): A549, MTT; for IC50: read-out: IC50; for IC (total growth inhibition): read-out: TGI
Outline: as §2

Hep3B = experiment: cells; conditions: Homo sapiens; for GI50 / IC50 / IC (total growth inhibition): MTT; for IC50: read-out: IC50; for IC (total growth inhibition): read-out: TGI; for LC50 (concentration causing 50% net cell loss relative to time zero): read-out: LC50
Outline: as §2

HT29 = experiment: cells; conditions: Homo sapiens; for LC50 (concentration giving 50% net cell loss relative to time zero): HT-29, read-out: LC50; for GI50 / IC50 / IC (total growth inhibition): HT-29, HT29, MTT; for IC50: read-out: IC50; for IC (total growth inhibition): read-out: TGI
Outline: as §2

MCF7 = experiment: cells; conditions: Homo sapiens; for LC50 (concentration causing 50% net cell loss relative to time zero): MCF7, read-out: LC50; for GI50 / IC50 / IC (total growth inhibition): MCF7, MTT; for IC50: read-out: IC50; for IC (total growth inhibition): read-out: TGI
Outline: as §2

HeLa = experiment: cells; conditions: Homo sapiens; for GI50 / IC50 / IC (total growth inhibition): MTT; for IC50: read-out: IC50; for IC (total growth inhibition): read-out: TGI; for LC50 (concentration causing 50% net cell loss): read-out: LC50
Outline: as §2

[2] = LDH cytotoxic activity assay, HeLa; conditions: human, HeLa cells
Outline: as §1

E. coli ATCC 25922 = experiment: Microdilution MIC assay; conditions: Escherichia coli, ATCC25922; E. coli ATCC 25922, 24 h at 35 °C
Outline: (§3)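 Microwell dilution; 24 h, 35 °C; visual read; MIC = lowest conc. without turbidity.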

S. mutans ATCC 35668 = experiment: Microdilution MIC assay; conditions: S. mutans ATCC 35668, 24 h at 35 °C
Outline: as §3

E. coli ESBL ATCC 35218 = experiment: Microdilution MIC assay; conditions: Escherichia coli, ATCC35218; E. coli ESBL ATCC 35218, 24 h at 35 °C
Outline: as §3

S. aureus ATCC 25923 = experiment: Microdilution MIC assay; conditions: Staphylococcus aureus, ATCC25923, 24 h, S. aureus ATCC 25923, 24 h at 35 °C; read-out: MIC
Outline: as §3

E. faecalis ATCC 29212 = experiment: Microdilution MIC assay; conditions: Enterococcus faecalis, ATCC29212, 24 h, E. faecalis ATCC 29212, 24 h at 35 °C; read-out: MIC
Outline: as §3

S. gordonii NCTC 7870 = experiment: Microdilution MIC assay; conditions: Streptococcus gordonii, NCTC7870; S. gordonii NCTC 7870, 24 h at 35 °C
Outline: as §3

[3] = LDH cytotoxic activity assay, HT29; conditions: human, HT29 cells; for cytotoxicity at 24 h, 25 μg/mL: HT29, 25 μg/mL; for cytotoxicity at 24 h, 50 μg/mL: HT29, 50 μg/mL; for cytotoxicity at 24 h, 75 μg/mL: HT29, 75 μg/mL; for cytotoxicity at 24 h, 100 μg/mL: HT29, 100 μg/mL
Outline: as §1

in vitro = conditions: human, LC50
Outline: as §2

normal FL cells = experiment: cells; conditions: FL normal cells, MTT; for IC50: read-out: IC50; for IC (total growth inhibition): read-out: TGI
Outline: as §2

[4] = Streptococcus mutans, ATCC35668, 24 h, read-out: MIC

GI50 (C6 (Rat brain glioma)): > 500 µg/mL | IC50 (C6 (Rat brain glioma)): > 500 µg/mL | GI50 (A549): 192 µg/mL (≈ 453 µM) | IC50 (A549): > 500 µg/mL | GI50 (Hep3B): 4.07 µg/mL (≈ 9.59 µM) | IC50 (Hep3B): > 500 µg/mL | GI50 (HT29): 4.29 µg/mL (≈ 10.1 µM) | IC50 (HT29): > 500 µg/mL | GI50 (MCF7): 2.29 µg/mL (≈ 5.4 µM) | IC50 (MCF7): > 500 µg/mL | GI50 (HeLa): > 500 µg/mL | IC50 (HeLa): > 500 µg/mL | MIC (E. coli ATCC 25922): > 1000 µg/mL | MIC (S. mutans ATCC 35668; [4]): 500 µg/mL (≈ 1180 µM) | MIC (E. coli ESBL ATCC 35218): > 1000 µg/mL | MIC (S. aureus ATCC 25923): 500 µg/mL (≈ 1180 µM) | MIC (E. faecalis ATCC 29212): 1000 µg/mL (≈ 2360 µM) | MIC (S. gordonii NCTC 7870): 250 µg/mL (≈ 589 µM)
SMILES: Cc1cccc(-c2cc(-c3ccncc3)nc(N[C@@H]3O[C@H](CO)[C@@H](O)[C@H](O)[C@H]3O)n2)c1 [Compound 6, N-[4-(3-methylphenyl)-6-pyridin-4-ylpyrimidin-2-yl]-β-D-glucopyranosylamine]
cytotoxicity at 24 h, 25 μg/mL [1]: 27.9% | cytotoxicity at 24 h, 50 μg/mL [1]: 38.2% | cytotoxicity at 24 h, 75 μg/mL [1]: 63.1% | cytotoxicity at 24 h, 100 μg/mL [1]: 84.9% | LC50 (concentration giving 50% net cell loss relative to time zero) (C6 (Rat brain glioma)): > 500 µg/mL | IC (total growth inhibition) (C6 (Rat brain glioma)): > 500 µg/mL | LC50 (concentration causing 50% net cell loss) (A549): > 500 µg/mL | IC (total growth inhibition) (A549): > 500 µg/mL | IC (total growth inhibition) (Hep3B): > 500 µg/mL | LC50 (concentration causing 50% net cell loss relative to time zero) (Hep3B): > 500 µg/mL | LC50 (concentration giving 50% net cell loss relative to time zero) (HT29): > 500 µg/mL | IC (total growth inhibition) (HT29): > 500 µg/mL | LC50 (concentration causing 50% net cell loss relative to time zero) (MCF7): > 500 µg/mL | IC (total growth inhibition) (MCF7): > 500 µg/mL | IC (total growth inhibition) (HeLa): > 500 µg/mL | LC50 (concentration causing 50% net cell loss) (HeLa): > 500 µg/mL | cytotoxicity at 24 h, 25 μg/mL [2]: 14.3% | cytotoxicity at 24 h, 50 μg/mL [2]: 29.2% | cytotoxicity at 24 h, 75 μg/mL [2]: 44.5% | cytotoxicity at 24 h, 100 μg/mL [2]: 47.8% | cytotoxicity at 24 h, 25 μg/mL [3]: 24.8% | cytotoxicity at 24 h, 50 μg/mL [3]: 34.5% | cytotoxicity at 24 h, 75 μg/mL [3]: 68.9% | cytotoxicity at 24 h, 100 μg/mL [3]: 85.6% | LC50 (concentration causing 50% net cell loss) (in vitro): > 500 µg/mL | GI50 (normal FL cells): 8.04 µg/mL (≈ 18.9 µM) | IC50 (normal FL cells): > 500 µg/mL | IC (total growth inhibition) (normal FL cells): > 500 µg/mL

GI50 (C6 (Rat brain glioma)): 8.15 µg/mL (≈ 19.2 µM) | IC50 (C6 (Rat brain glioma)): 29.3 µg/mL (≈ 69 µM) | GI50 (A549): 125 µg/mL (≈ 295 µM) | IC50 (A549): > 500 µg/mL | GI50 (Hep3B): 4.26 µg/mL (≈ 10 µM) | IC50 (Hep3B): 183 µg/mL (≈ 430 µM) | GI50 (HT29): 2.5 µg/mL (≈ 5.89 µM) | IC50 (HT29): 29.9 µg/mL (≈ 70.5 µM) | GI50 (MCF7): 2.04 µg/mL (≈ 4.81 µM) | IC50 (MCF7): > 500 µg/mL | GI50 (HeLa): 7.17 µg/mL (≈ 16.9 µM) | IC50 (HeLa): 31.9 µg/mL (≈ 75 µM) | MIC (E. coli ATCC 25922): > 1000 µg/mL | MIC (S. mutans ATCC 35668): 125 µg/mL (≈ 294 µM) | MIC (S. mutans ATCC 35668; [4]): 62.5 to 125 µg/mL (≈ 147 to 294 µM) | MIC (E. coli ESBL ATCC 35218): > 1000 µg/mL | MIC (S. aureus ATCC 25923): 250 µg/mL (≈ 589 µM) | MIC (E. faecalis ATCC 29212): 250 µg/mL (≈ 589 µM) | MIC (S. gordonii NCTC 7870): 500 µg/mL (≈ 1180 µM)
SMILES: Cc1ccc(-c2cc(-c3ccccn3)nc(N[C@@H]3O[C@H](CO)[C@@H](O)[C@H](O)[C@H]3O)n2)cc1 [Compound 7, N-[4-(4-methylphenyl)-6-pyridin-2-ylpyrimidin-2-yl]-β-D-glucopyranosylamine]
cytotoxicity at 24 h, 25 μg/mL [1]: 22% | cytotoxicity at 24 h, 50 μg/mL [1]: 48.6% | cytotoxicity at 24 h, 75 μg/mL [1]: 69.5% | cytotoxicity at 24 h, 100 μg/mL [1]: 85.8% | LC50 (concentration giving 50% net cell loss relative to time zero) (C6 (Rat brain glioma)): 88.3 µg/mL (≈ 208 µM) | IC (total growth inhibition) (C6 (Rat brain glioma)): 21.5 µg/mL | LC50 (concentration causing 50% net cell loss) (A549): > 500 µg/mL | IC (total growth inhibition) (A549): > 500 µg/mL | IC (total growth inhibition) (Hep3B): 194 µg/mL | LC50 (concentration causing 50% net cell loss relative to time zero) (Hep3B): > 500 µg/mL | LC50 (concentration giving 50% net cell loss relative to time zero) (HT29): > 500 µg/mL | IC (total growth inhibition) (HT29): 49.2 µg/mL | LC50 (concentration causing 50% net cell loss relative to time zero) (MCF7): > 500 µg/mL | IC (total growth inhibition) (MCF7): > 500 µg/mL | IC (total growth inhibition) (HeLa): 21.6 µg/mL | LC50 (concentration causing 50% net cell loss) (HeLa): 120 µg/mL (≈ 284 µM) | cytotoxicity at 24 h, 25 μg/mL [2]: 11.9% | cytotoxicity at 24 h, 50 μg/mL [2]: 25.1% | cytotoxicity at 24 h, 75 μg/mL [2]: 38.4% | cytotoxicity at 24 h, 100 μg/mL [2]: 50.7% | cytotoxicity at 24 h, 25 μg/mL [3]: 26% | cytotoxicity at 24 h, 50 μg/mL [3]: 40.7% | cytotoxicity at 24 h, 75 μg/mL [3]: 75.9% | cytotoxicity at 24 h, 100 μg/mL [3]: 91.8% | LC50 (concentration causing 50% net cell loss) (in vitro): > 500 µg/mL | GI50 (normal FL cells): 6.1 µg/mL (≈ 14.4 µM) | IC50 (normal FL cells): 255 µg/mL (≈ 600 µM) | IC (total growth inhibition) (normal FL cells): 266 µg/mL
